Results on three molecules are retold here after US20110009624A9, “BENZIMIDAZOLE COMPOUNDS HAVING GASTRIC ACID SECRETION INHIBITORY ACTION” (priority 2006, published 2011).

Assay [1] relates to gastric acid secretion (histamine-stimulated). The assay can be described thus: Gastric acid secretion inhibitory effects in dogs fitted with chronic gastric fistula tube. It counts as in vivo. Conditions: for Gastric acid secretion inhibitory action (%) / Duration of gastric acid secretion inhibitory action (%): dogs with chronic gastric fistula tube, histamine i.v., 1.6 mg/kg i.d.; for Gastric acid secretion inhibitory action (%): day 1 (1 h 40 min to 2 h after administration); for Duration of gastric acid secretion inhibitory action (%): day 2 (24 hours after administration); for gastric acid secretion inhibitory action and duration of gastric acid secretion inhibitory action (assessment in words): on the basis of Table 1. As for the experimental part: Gastric Acid Secretion Inhibitory Effects in Dogs Fitted with Chronic Gastric Fistula Tube
The gastric acid secretion inhibitory and duration of gastric acid secretion inhibitory action of compounds of the examples were assessed using large dogs fitted with a chronic gastric fistula tube (body weights: approx. 14 to 19 kg). The experiment was conducted for 2 days. On the first day, gastric juices were collected every 20 minutes under conditions of continuous intravenous administration of histamine (50 or 75 μg/kg/h) for 3 hours. A compound of the examples dissolved or suspended in 0.5% methyl cellulose solution was administered via a catheter implanted in the duodenum at the rate of 0.1 ml/kg one hour after the start of histamine administration. The gastric acid secretion inhibitory action of the compound of the examples was assessed over the next two hours. On the second day (24 hours after administration of the compound of the examples), gastric juices were collected every 20 minutes under conditions of continuous intravenous administration of histamine for 2 hours followed by assessment of the duration of gastric acid secretion inhibitory action. After measuring the amount of gastric juices, 0.5 ml of gastric juice were sampled and titrated to neutrality to a pH of 7.0 with 0.04 mol/L aqueous sodium hydroxide solution to measure acid concentration. The amount of gastric acid discharged was determined by multiplying the amount of gastric juice by the acid concentration. Gastric acid secretion inhibitory action was evaluated as the rate of gastric acid secretion inhibition (%) on day 1. Gastric acid secretion inhibitory action (%) was determined according to the formula indicated below:
Gastric acid secretion inhibitory action (%)=(A−B)/A×100
[A]: amount of gastric acid discharged for 20 minutes from 40 minutes to 1 hour after the start of administration of histamine
[B]: amount of gastric acid discharged for 20 minutes from 1 hour 40 minutes to 2 hours after the start of administration of the compound of the examples.
The duration of gastric acid secretion inhibitory action was evaluated as the rate of gastric acid secretion inhibition (%) on day 2. The duration of gastric acid secretion inhibitory action (%) was determined according to the formula indicated below:
Duration of gastric acid secretion inhibitory action (%)=(C−D)/C×100
[C]: Total amount of gastric acid discharged from start of administration of histamine on day 1 to one hour later
[D]: Total amount of gastric acid discharged from start of administration of histamine on day 2 to one hour later.

Assay [2] deals with T1, H+, K+-ATPase (Sus scrofa, UniProt P19156).
T1 construct: H^+, K^+-ATPase was prepared from a fundic gland area of fresh hog gastric mucosa; from tissue; host or cells: fundic gland area of fresh hog gastric mucosa
Description: H+, K+-ATPase activity inhibitory action. Type of assay: biochemical. Conditions: hog gastric mucosa enzyme, preincubation 30 minutes at 37° C., pH 6.1. The method, then: H^+, K^+-ATPase Activity Inhibitory Action
H^+, K^+-ATPase was prepared from a fundic gland area of fresh hog gastric mucosa using a variation of the Chang's method [Biochim. Biophys. Acta 464, 313 (1977)].
(1) The sodium salt of 2-[[[4-[3-hydroxy-2-(hydroxymethyl)propoxy]-3,5-dimethylpyridin-2-yl]methyl]sulfinyl]-1H-benzimidazole (Example 15) and (2) 3-[3-hydroxy-2-(hydroxymethyl)propoxy]-2,4-dimethyl-5H-pyrido[1′,2′,4,5][1,2,4]thiadiazino[2,3-a]benzimidazolium hexafluorophosphate (Example 16) were selected for the test compounds, and each was used after dissolving in methanol.
10 μL aliquots of various concentrations of the test compounds or solvent were mixed into 200 μL of 50 μg/mL H^+, K^+-ATPase, 100 μL of 10 mmol/L Pipes-Tris (pH 6.1) and 190 μL of distilled water followed by incubating for 30 minutes at 37° C., adding 150 μL of 100 mmol/L KCl (or distilled water) and 10 μL of 100 μg/mL gramicidin, and further incubating for 10 minutes. […] The amount of inorganic phosphoric acid that was released during this 10 minute period was measured in compliance with the method of Yoda and Hokin (Biochem. Biophys. Res. Commun., 40, 880, 1970). […]
Residual enzyme activity at each concentration of test compound was determined as the amount of H^+, K^+-ATPase activity as a percentage of the H^+, K^+-ATPase activity of a control group (solvent addition). […]

What is called IC50 is the concentration that inhibits the measured activity by half. Low readings indicate greater potency, high ones weaker potency.

T1 sequence (P19156 whole entry): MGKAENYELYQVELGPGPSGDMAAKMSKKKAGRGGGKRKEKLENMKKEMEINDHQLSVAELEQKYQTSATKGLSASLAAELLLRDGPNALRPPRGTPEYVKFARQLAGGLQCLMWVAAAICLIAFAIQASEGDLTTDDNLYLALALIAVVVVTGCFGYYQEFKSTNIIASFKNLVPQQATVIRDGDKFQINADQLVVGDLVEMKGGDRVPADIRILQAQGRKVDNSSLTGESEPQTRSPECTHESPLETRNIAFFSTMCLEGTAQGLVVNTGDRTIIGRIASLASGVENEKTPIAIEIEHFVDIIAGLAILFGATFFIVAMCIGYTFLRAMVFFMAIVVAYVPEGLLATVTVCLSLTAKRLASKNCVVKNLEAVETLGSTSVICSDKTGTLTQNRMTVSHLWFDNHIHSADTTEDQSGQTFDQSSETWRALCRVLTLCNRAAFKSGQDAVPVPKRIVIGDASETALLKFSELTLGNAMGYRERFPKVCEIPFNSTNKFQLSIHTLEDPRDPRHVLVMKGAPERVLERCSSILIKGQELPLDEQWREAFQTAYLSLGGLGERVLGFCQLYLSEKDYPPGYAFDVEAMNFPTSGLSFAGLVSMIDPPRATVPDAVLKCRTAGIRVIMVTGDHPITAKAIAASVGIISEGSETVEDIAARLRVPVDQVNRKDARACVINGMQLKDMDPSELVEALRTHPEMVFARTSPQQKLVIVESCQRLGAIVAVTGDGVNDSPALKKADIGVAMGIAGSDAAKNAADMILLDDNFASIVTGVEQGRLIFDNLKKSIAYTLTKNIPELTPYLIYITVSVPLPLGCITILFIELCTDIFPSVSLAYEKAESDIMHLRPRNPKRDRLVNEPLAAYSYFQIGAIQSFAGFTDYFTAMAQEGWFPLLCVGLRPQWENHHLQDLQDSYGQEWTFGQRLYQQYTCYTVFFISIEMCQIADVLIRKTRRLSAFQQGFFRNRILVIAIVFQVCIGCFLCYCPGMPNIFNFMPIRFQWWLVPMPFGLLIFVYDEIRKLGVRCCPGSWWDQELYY
T1 sequence (P18434 whole entry partner): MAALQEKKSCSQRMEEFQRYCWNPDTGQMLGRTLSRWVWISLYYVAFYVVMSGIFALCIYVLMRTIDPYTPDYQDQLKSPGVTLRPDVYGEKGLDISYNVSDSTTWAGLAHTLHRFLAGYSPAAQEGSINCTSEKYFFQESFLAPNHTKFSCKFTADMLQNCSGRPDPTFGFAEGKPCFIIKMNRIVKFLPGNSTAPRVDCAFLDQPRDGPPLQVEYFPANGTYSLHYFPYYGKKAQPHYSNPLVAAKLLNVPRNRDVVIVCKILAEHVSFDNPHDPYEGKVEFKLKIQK

As to `Cc1c(OCCC2COC3(CCOCC3)O2)ccnc1C[S+]([O-])c1nc2ccccc2[n-]1.[Na+]` (stereo not shown) [Example 13, 2-[[[3-methyl-4-[2-(1,4,8-trioxaspiro[4.5]deca-2-yl)ethoxy]pyridin-2-yl]methyl]sulfinyl]-1H-benzimidazole], in assay [1], the “Gastric acid secretion inhibitory action (%)” value is listed as 100%; the “Duration of gastric acid secretion inhibitory action (%)” value is given as 84%; the “gastric acid secretion inhibitory action and duration of gastric acid secretion inhibitory action (assessment in words)” value was “satisfactory”.
`Cc1c(OCCCC2COC3(CCC3)O2)ccnc1C[S+]([O-])c1nc2ccccc2[n-]1.[Na+]` (stereo not shown) [Example 9, 2-[[[4-[3-(5,8-dioxaspiro[3.4]octa-6-yl)propoxy]-3-methylpyridin-2-yl]methyl]sulfinyl]-1H-benzimidazole]: in assay [1], the “Gastric acid secretion inhibitory action (%)” value came to 100%; the “Duration of gastric acid secretion inhibitory action (%)” value worked out at 89%; the “gastric acid secretion inhibitory action and duration of gastric acid secretion inhibitory action (assessment in words)” value is “satisfactory”.
For the molecule `Cc1c[n+]2c(c(C)c1OCC(CO)CO)CSn1c-2nc2ccccc21` [Example 16, 3-[3-Hydroxy-2-(hydroxymethyl)propoxy]-2,4-dimethyl-5H-pyrido[1′,2′,4,5][1,2,4]thiadiazino[2,3-a]benzimidazolium hexafluorophosphate], it took 0.22 µM to reach half-maximal inhibition in assay [2] (IC50).
